The text below walks through data of patent publication US9238619B2, “Phenalkylamine derivatives, pharmaceutical compositions containing them, and their use in therapy” (AbbVie Deutschland GmbH & Co. KG, priority 2010, dated 2016).

Structures are written as SMILES. Counter-ions that a name gives are not always drawn.

The target of this experiment is human GlyT1c transporter (Homo sapiens (Human), UniProt P48067). Put plainly: Radioligand binding assays using recombinant CHO cell membranes expressing human GlyT1. To be noted: read-out: radioligand binding Kiapp. The procedure: Radioligand binding to human GlyT1c transporter-expressing membranes was determined as described in Mezler et al., Molecular Pharmacology 74:1705-1715, 2008.
Chain of human GlyT1c transporter (P48067 whole entry): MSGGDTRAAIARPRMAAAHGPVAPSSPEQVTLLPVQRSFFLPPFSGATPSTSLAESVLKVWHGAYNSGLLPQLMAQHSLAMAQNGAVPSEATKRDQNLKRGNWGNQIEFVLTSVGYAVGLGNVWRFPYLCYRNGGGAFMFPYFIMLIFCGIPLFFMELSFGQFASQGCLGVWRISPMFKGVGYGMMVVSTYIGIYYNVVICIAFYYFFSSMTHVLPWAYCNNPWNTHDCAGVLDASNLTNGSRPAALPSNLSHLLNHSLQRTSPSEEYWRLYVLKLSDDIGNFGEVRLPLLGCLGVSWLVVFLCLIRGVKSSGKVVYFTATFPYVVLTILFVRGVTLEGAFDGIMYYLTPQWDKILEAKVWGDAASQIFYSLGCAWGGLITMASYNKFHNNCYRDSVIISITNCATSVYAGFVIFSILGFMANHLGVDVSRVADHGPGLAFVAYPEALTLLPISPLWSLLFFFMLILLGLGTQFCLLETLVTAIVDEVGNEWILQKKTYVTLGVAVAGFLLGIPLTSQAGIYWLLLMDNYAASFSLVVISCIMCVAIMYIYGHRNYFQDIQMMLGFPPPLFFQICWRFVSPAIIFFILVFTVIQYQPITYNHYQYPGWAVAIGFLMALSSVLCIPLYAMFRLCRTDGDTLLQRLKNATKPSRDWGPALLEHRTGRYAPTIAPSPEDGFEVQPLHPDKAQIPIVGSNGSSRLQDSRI
As to `Cn1cnc(S(=O)(=O)NCCOc2ccc(F)c(C(CN)Cc3ccccc3)c2)c1` (centres unmarked) [Example 1, 1-Methyl-1H-imidazole-4-sulfonic acid {2-[3-(2-amino-1-benzyl-ethyl)-4-fluoro-phenoxy]-ethyl}-amide hydrochloride], the Ki is no more than 1000 nM. The figure for `Cn1cc(S(=O)(=O)NCCOc2cccc(C(CN)Cc3cccc(Cl)c3)c2)cn1` (centres unmarked) [Example 2, 1-Methyl-1H-pyrazole-4-sulfonic acid (2-{3-[2-amino-1-(3-chloro-benzyl)ethyl]-phenoxy}-ethyl)-amide, hydrochloride] is no more than 1000 nM; for `Cn1cc(S(=O)(=O)NCCOc2cc(C(CN)Cc3ccccc3)ccc2F)cn1` (centres unmarked) [Example 3, 1-Methyl-1H-pyrazole-4-sulfonic acid {2-[5-(2-amino-1-benzyl-ethyl)-2-fluoro-phenoxy]-ethyl}-amide, hydrochloride] it is no more than 100 nM. The figure for `Cn1cnc(S(=O)(=O)NCCOc2cc(C(CN)Cc3ccccc3)ccc2F)c1` (centres unmarked) [Example 4, 1-Methyl-1H-imidazole-4-sulfonic acid {2-[5-(2-amino-1-benzyl-ethyl)-2-fluoro-phenoxy]-ethyl}-amide, hydrochloride] is no more than 100 nM; for `Cn1cnc(S(=O)(=O)NCCOc2cccc(C(CN)Cc3ccccc3)c2)c1` (centres unmarked) [Example 5, 1-Methyl-1H-imidazole-4-sulfonic acid {2-[3-(2-amino-1-benzyl-ethyl)phenoxy]-ethyl}-amide] it is no more than 100 nM; for `Cn1cc(S(=O)(=O)NCCOc2cccc(C(CN)Cc3ccccc3)c2)cn1` (centres unmarked) [Example 6, 1-Methyl-1H-pyrazole-4-sulfonic acid {2-[3-(2-amino-1-benzyl-ethyl)-phenoxy]-ethyl}-amide, hydrochloride] it is no more than 100 nM. Under `Cn1cc(S(=O)(=O)NCCOc2cccc(C(CN)Cc3cc(F)cc(F)c3)c2)cn1` (centres unmarked) [Example 7, 1-Methyl-1H-pyrazole-4-sulfonic acid (2-{3-[2-amino-1-(3,5-difluoro-benzyl)ethyl]-phenoxy}-ethyl)-amide, hydrochloride] stands no more than 1000 nM. Turning to `Cn1cc(S(=O)(=O)NCCOc2cccc(C(CN)Cc3ccc(Cl)cc3)c2)cn1` (centres unmarked) [Example 8, 1-Methyl-1H-pyrazole-4-sulfonic acid (2-{3-[2-amino-1-(4-chloro-benzyl)ethyl]-phenoxy}-ethyl)-amide, hydrochloride], the Ki was no more than 1000 nM.

Turning to `Cn1cnc(S(=O)(=O)NCCOc2cccc(C(CN)Cc3cccc(Cl)c3)c2)c1` (centres unmarked) [Example 9, 1-Methyl-1H-imidazole-4-sulfonic acid (2-{3-[2-amino-1-(3-chloro-benzyl)ethyl]-phenoxy}-ethyl)-amide, hydrochloride], the Ki is no more than 1000 nM.

For the compound `Cn1cc(S(=O)(=O)NCCOc2cccc(C(CN)Cc3cccc(C(F)(F)F)c3)c2)cn1` (centres unmarked) [Example 10, 1-Methyl-1H-pyrazole-4-sulfonic acid (2-{3-[2-amino-1-(3-trifluoromethylbenzyl)-ethyl]-phenoxy}-ethyl)-amide, hydrochloride], the Ki is no more than 100 nM. Under `Cn1cnc(S(=O)(=O)NCCOc2cccc(C(CN)Cc3cc(F)cc(F)c3)c2)c1` (centres unmarked) [Example 11, 1-Methyl-1H-imidazole-4-sulfonic acid (2-{3-[2-amino-1-(3,5-difluoro-benzyl)ethyl]-phenoxy}-ethyl)-amide, hydrochloride] stands no more than 1000 nM; under `Cn1cnc(S(=O)(=O)NCCOc2cccc(C(CN)Cc3cccc(C(F)(F)F)c3)c2)c1` (centres unmarked) [Example 12, 1-Methyl-1H-imidazole-4-sulfonic acid (2-{3-[2-amino-1-(3-trifluoromethylbenzyl)-ethyl]-phenoxy}-ethyl)-amide, hydrochloride], no more than 100 nM; under `NCC(Cc1ccccc1)c1cccc(CNS(=O)(=O)CC2CC2)c1` (centres unmarked) [Example 14, N-[3-(2-Amino-1-benzyl-ethyl)-benzyl]-C-cyclopropyl-methanesulfonamide], no more than 10000 nM.

Take `Cn1cc(S(=O)(=O)NCc2cccc(C(Cc3ccccc3)C(N)=O)c2)cn1` (centres unmarked) [Example 15, 2-{3-[(1-Methyl-1H-pyrazole-4-sulfonylamino)-methyl]-phenyl}-3-phenyl-propionamide]: the Ki was no more than 10000 nM. Take `Cn1cnc(S(=O)(=O)NCc2cccc(C(Cc3ccccc3)C(N)=O)c2)c1` (centres unmarked) [Example 16, 2-{3-[(1-Methyl-1H-imidazole-4-sulfonylamino)-methyl]-phenyl}-3-phenyl-propionamide]: the Ki was no more than 10000 nM. For `Cn1cnc(S(=O)(=O)NCc2cccc(C(Cc3ccccc3)C(=O)N3CCOCC3)c2)c1` (centres unmarked) [Example 17, 1-Methyl-1H-imidazole-4-sulfonic acid 3-(1-benzyl-2-morpholin-4-yl-2-oxo-ethyl)-benzylamide], the Ki was no more than 10000 nM. With `Cn1cc(S(=O)(=O)NCc2cccc(C(CN)Cc3ccccc3)c2)cn1` (centres unmarked) [Example 18, 1-Methyl-1H-pyrazole-4-sulfonic acid 3-(2-amino-1-benzyl-ethyl)benzylamide, hydrochloride], the Ki was no more than 100 nM. Under `Cn1cnc(S(=O)(=O)NCc2cccc(C(CN)Cc3ccccc3)c2)c1` (centres unmarked) [Example 19, 1-Methyl-1H-imidazole-4-sulfonic acid 3-(2-amino-1-benzyl-ethyl)benzylamide, hydrochloride] stands no more than 1000 nM. Under `Cn1cnc(S(=O)(=O)NCc2cccc(C(Cc3ccccc3)CN3CCOCC3)c2)c1` (centres unmarked) [Example 20, 1-Methyl-1H-imidazole-4-sulfonic acid 3-(1-benzyl-2-morpholin-4-yl-ethyl)benzylamide] stands no more than 10000 nM; under `Cn1cc(S(=O)(=O)NCc2cccc(C(Cc3ccccc3)CN3CCOCC3)c2)cn1` (centres unmarked) [Example 21, 1-Methyl-1H-pyrazole-4-sulfonic acid 3-(1-benzyl-2-morpholin-4-yl-ethyl)benzylamide], no more than 1000 nM; under `O=S(=O)(CC1CC1)NCc1cccc(C(Cc2ccccc2)CN2CCOCC2)c1` (centres unmarked) [Example 22, N-[3-(1-Benzyl-2-morpholin-4-yl-ethyl)-benzyl]-C-cyclopropyl-methanesulfonamide, hydrochloride], no more than 10000 nM. The figure for `CN(C)CC(Cc1ccccc1)c1cc(OCCNS(=O)(=O)c2cn(C)cn2)ccc1F` (centres unmarked) [Example 23, 1-Methyl-1H-imidazole-4-sulfonic acid {2-[3-(1-benzyl-2-dimethylamino-ethyl)-4-fluoro-phenoxy]-ethyl}-amide] is no more than 100 nM. Take `CN(C)CC(Cc1ccccc1)c1cccc(OCCNS(=O)(=O)c2cnn(C)c2)c1` (centres unmarked) [Example 24, 1-Methyl-1H-pyrazole-4-sulfonic acid {2-[3-(1-benzyl-2-dimethylamino-ethyl)phenoxy]-ethyl}-amide]: the Ki was no more than 100 nM. As to `CN(C)CC(Cc1ccccc1)c1cccc(OCCNS(=O)(=O)c2cn(C)cn2)c1` (centres unmarked) [Example 25, 1-Methyl-1H-imidazole-4-sulfonic acid {2-[3-(1-benzyl-2-dimethylaminoethyl)-phenoxy]-ethyl}-amide], the Ki is no more than 1000 nM.

In the case of `CN(C)CC(Cc1ccccc1)c1cccc(CNS(=O)(=O)c2cn(C)cn2)c1` (centres unmarked) [Example 26, 1-Methyl-1H-imidazole-4-sulfonic acid 3-(1-benzyl-2-dimethylamino-ethyl)benzylamide], the Ki was no more than 1000 nM. With `CN(C)CC(Cc1ccccc1)c1cccc(CNS(=O)(=O)c2cnn(C)c2)c1` (centres unmarked) [Example 27, 1-Methyl-1H-pyrazole-4-sulfonic acid 3-(1-benzyl-2-dimethylamino-ethyl)benzylamide], the Ki is no more than 1000 nM. Regarding `CN(C)CC(Cc1cccc(C(F)(F)F)c1)c1cccc(OCCNS(=O)(=O)c2cnn(C)c2)c1` (centres unmarked) [Example 28, 1-Methyl-1H-pyrazole-4-sulfonic acid (2-{3-[2-dimethylamino-1-(3-trifluoromethyl-benzyl)-ethyl]-phenoxy}-ethyl)-amide], the Ki was no more than 100 nM. On to `CN(C)CC(Cc1cccc(C(F)(F)F)c1)c1cccc(OCCNS(=O)(=O)c2cn(C)cn2)c1` (centres unmarked) [Example 29, 1-Methyl-1H-imidazole-4-sulfonic acid (2-{3-[2-dimethylamino-1-(3-trifluoromethyl-benzyl)-ethyl]-phenoxy}-ethyl)-amide], for which the Ki was no more than 100 nM. The figure for `CN(C)CC(Cc1ccccc1)c1cc(OCCNS(=O)(=O)c2cnn(C)c2)ccc1Cl` (centres unmarked) [Example 30, 1-Methyl-1H-pyrazole-4-sulfonic acid {2-[3-(1-benzyl-2-dimethylamino-ethyl)-4-chloro-phenoxy]-ethyl}-amide, hydrochloride] is no more than 100 nM; for `CN(C)CC(Cc1ccccc1)c1ccc(F)c(OCCNS(=O)(=O)c2cnn(C)c2)c1` (centres unmarked) [Example 31, 1-Methyl-1H-pyrazole-4-sulfonic acid {2-[5-(1-benzyl-2-dimethylamino-ethyl)-2-fluoro-phenoxy]-ethyl}-amide] it is no more than 100 nM. Under `CN(C)CC(Cc1ccccc1)c1ccc(F)c(OCCNS(=O)(=O)c2cn(C)cn2)c1` (centres unmarked) [Example 32, 1-Methyl-1H-imidazole-4-sulfonic acid {2-[5-(1-benzyl-2-dimethylamino-ethyl)-2-fluoro-phenoxy]-ethyl}-amide] stands no more than 100 nM.

As for `CN(C)CC(Cc1ccccc1)c1cc(OCCNS(=O)(=O)c2cnn(C)c2)ccc1F` (centres unmarked) [Example 33, 1-Methyl-1H-pyrazole-4-sulfonic acid {2-[3-(1-benzyl-2-dimethylamino-ethyl)-4-fluoro-phenoxy]-ethyl}-amide], the Ki is no more than 100 nM. The figure for `Cn1cc(S(=O)(=O)NCCOc2cccc(C(Cc3ccccc3)CN3CCCC3)c2)cn1` (centres unmarked) [Example 34, 1-Methyl-1H-pyrazole-4-sulfonic acid {2-[3-(1-benzyl-2-pyrrolidin-1-yl-ethyl)phenoxy]-ethyl}-amide] is no more than 1000 nM. The figure for `Cn1cnc(S(=O)(=O)NCCOc2cccc(C(Cc3ccccc3)CN3CCCC3)c2)c1` (centres unmarked) [Example 35, 1-Methyl-1H-imidazole-4-sulfonic acid {2-[3-(1-benzyl-2-pyrrolidin-1-yl-ethyl)phenoxy]-ethyl}-amide] is no more than 1000 nM; for `Cn1cc(S(=O)(=O)NCCOc2cccc(C(Cc3ccccc3)CN3CCC3)c2)cn1` (centres unmarked) [Example 36] it is no more than 1000 nM.
